{
  "source": "patent US9605023B2",
  "about": "“Application of SP peptide or derivative thereof in preparing medicines for preventing or treating asthma” (priority 2012, dated 2017)",
  "key": {"[1]": {"system": "allergic asthma mouse model", "experiment": "Histopathologic examination and lesion score of lung tissues of allergic asthma mice induced by ovalbumin and aluminium hydroxide", "assay_type": "in vivo", "experimental": "(§1) ICR mice, half male and half female, are divided randomly into 9 groups with each group having 10 mice, that is:\n(§2) 3) positive medicines group (administer an equal volume of dexamethasone injection solution with the model group, having the dosage of 0.9 μg/kg·d);\n(§3) All dosage groups of the SP peptide are administered by subcutaneous injection with a 0.1 ml SP peptide solution per 10 g weight of a mouse, the blank control group uses the same amount of physiological saline (0.1 ml physiological saline per 10 g weight of a mouse), and the positive medicines group is administered by intraperitoneal injection with 0.1 ml positive medicines per 10 g weight of a mouse.\n(§4) Preparation of sensitized liquid: prepare in a proportion of dissolving 10 ug ovalbumin and 2 mg aluminium hydroxide in 0.5 ml physiological saline, and use it right after being prepared.\n(§5) On day 1, day 7 and day 14, the mice of all groups (the model group, the preventive administration groups, the treatment administration groups, and the positive medicines group) apart from the blank control group are injected intraperitoneally with 0.5 ml freshly prepared sensitized liquid. The blank control group is injected intraperitoneally with an equal volume of physiological saline.\n(§6) Since day 21 (i.e., starting from week 4), the mice of all groups apart from the blank control group are placed in a 16 L closed container every fourth days, make the mice inhale 1 wt % ovalbumin physiological saline by ultrasonic nebulization, with an inhalation duration of 25 min/d and a nebulization flow rate of 3 ml/min, for twice a week to induce asthma, and the process continues until week 19. The mice in the blank control group undergo nebulization […] with an equal volume of physiological saline.\n(§7) Particularly, the preventive administration group (the SP peptide high-dosage preventive administration group, SP peptide medium-dosage preventive administration group, and SP peptide low-dosage preventive administration group) are injected subcutaneously a corresponding dosage of SP peptide at right hindlimb of the mouse, one hour after the first intraperitoneal injection of the sensitized liquid (i.e., from day 1), and are administered every other day for 15 times in total.\n(§8) From the same day, the mice in the treatment administration groups (SP high-dosage treatment administration group, SP medium-dosage treatment administration group, and SP low-dosage treatment administration group) are injected subcutaneously with a corresponding dosage of SP peptide at right hindlimb thereof, and are administered every other day for 15 times in total. From the same day, the mice in the positive medicines group are injected intraperitoneally with 0.1 ml dexamethasone injection per 10 g weight of a mouse, and are administered every other day for 15 times in total.\nLung tissue lesions (including bronchia and perivascular interstitial edema, alveolar wall congestion or emphysema) are marked respectively as 1, 2, 3 and 4 in ascending order of severity, 0 stands for no obvious lesions, and 0.5 for extreme mild lesions. All scores are accumulated, and a mean score (±SD) of each mouse in each group is calculated, and a higher score indicates a more severe level of lesions. Perform a rank-sum test to pathological score results to compare the two samples, and compare with the model group.\n2.2 Data Processing: perform data processing to all data, rank-sum test to pathological score, t-test to the other data, and make statistics to analytic results."}, "[2]": {"system": "IL-4", "experiment": "IL-4 level (ELISA) in serum and lung tissue homogenates of allergic asthma mice induced by ovalbumin and aluminium hydroxide", "assay_type": "in vivo, mouse", "experimental": "as §1, §2\n(§9) 4) SP peptide high-dosage preventive administration group, 5) SP peptide medium-dosage preventive administration group, and 6) SP peptide low-dosage preventive administration group (administer ovalbumin and aluminium hydroxide, and the SP peptides with a respective dosage of 250 μg/kg·d, 125 μg/kg·d and 62.5 μg/kg·d prepared into an SP peptide solution of a desired concentration with physiological saline).\n(§10) 7) SP peptide high-dosage treatment administrative group, 8) SP peptide medium-dosage treatment administration group, and 9) SP peptide low-dosage treatment administration group (administer ovalbumin and aluminium hydroxide, and the SP peptides with a respective dosage of 250 μg/kg·d, 125 μg/kg·d and 62.5 μg/kg·d prepared into an SP peptide solution of a desired concentration with physiological saline).\nas §3, §4, §5, §6, §7, §8\n(§11) As for the determination of the experimental result, all mice are killed to obtain blood by picking off their eyeballs 6 hours after the final nebulization inhalation (week 19), and serum is collected and stored at −70° C. until needed. […]"}, "[3]": {"system": "TNF-α", "details": "pneumonia; recorded in CN101822816A; cited from earlier work"}, "[4]": {"system": "r-IFN, IL-4 and IL-10", "details": "disclosed in CN1194986C and CN1216075C; cited from earlier work"}, "[5]": {"system": "IL-13", "experiment": "IL-13 level (ELISA) in serum and lung tissue homogenates of allergic asthma mice induced by ovalbumin and aluminium hydroxide", "assay_type": "in vivo, mouse", "details": "for IL-13 level in serums / IL-13 level in lung tissue homogenates: compared to model group", "experimental": "as §1, §2, §9, §10, §3, §4, §5, §6, §7, §8, §11"}, "[6]": {"system": "IL-13", "experiment": "IL-13 level (ELISA) in serum and lung tissue homogenates of allergic asthma mice induced by ovalbumin and aluminium hydroxide", "assay_type": "in vivo, mouse", "details": "compared to model group"}, "[7]": {"details": "positive drug group, dexamethasone 0.9 μg/kg·d i.p. every other day x15 from week 15, FIG. 6"}, "[8]": {"details": "all SP peptide high-/medium-/low-dosage preventive and treatment administration groups, compared to the model group (summary statement)"}, "[9]": {"details": "SP peptide high-dosage preventive administration group, 250 μg/kg·d s.c., FIG. 9"}, "[10]": {"details": "SP peptide high-dosage treatment administration group, 250 μg/kg·d s.c., FIG. 12"}, "[11]": {"details": "SP peptide low-dosage preventive administration group, 62.5 μg/kg·d s.c., FIG. 7"}, "[12]": {"details": "SP peptide low-dosage treatment administration group, 62.5 μg/kg·d s.c., FIG. 10"}, "[13]": {"details": "SP peptide medium-dosage preventive administration group, 125 μg/kg·d s.c., FIG. 8"}, "[14]": {"details": "SP peptide medium-dosage treatment administration group, 125 μg/kg·d s.c., FIG. 11"}},
  "note": "Where no end group is shown, it is not given here.",
  "data": [
    {"molecule": "C[C@@H]1C[C@H]2[C@@H]3CCC4=CC(=O)C=C[C@]4(C)[C@@]3(F)[C@@H](O)C[C@]2(C)[C@@]1(O)C(=O)CO", "note": "[positive drug, dexamethasone, reference compound]", "values": [
      {"measurement": "inflammatory cells infiltration (lung tissue section)", "setting": "[1]; [7]", "value": "infiltration with a few inflammatory cells"},
      {"measurement": "pulmonary interstitial edema (lung tissue section)", "setting": "[1]; [7]", "value": "mild pulmonary interstitial edema"}
    ]},
    {"molecule": "GQTYTSG", "values": [
      {"measurement": "IL-4 level", "setting": "[2]; SP peptide high-dosage preventive administration group, 250 μg/kg·d s.c., compared to model group", "value": "significantly decreased"},
      {"measurement": "IL-4 level", "setting": "[2]; SP peptide high-dosage treatment administration group, 250 μg/kg·d s.c., compared to model group", "value": "significantly decreased"},
      {"measurement": "IL-4 level", "setting": "[2]; SP peptide low-dosage treatment administration group, 62.5 μg/kg·d s.c., compared to model group", "value": "significantly decreased"},
      {"measurement": "IL-4 level", "setting": "[2]; SP peptide medium-dosage preventive administration group, 125 μg/kg·d s.c., compared to model group", "value": "significantly decreased"},
      {"measurement": "IL-4 level", "setting": "[2]; SP peptide medium-dosage treatment administration group, 125 μg/kg·d s.c., compared to model group", "value": "significantly decreased"},
      {"measurement": "IL-4 level", "setting": "[2]; [8]", "value": "significantly reduced"},
      {"measurement": "TNF-α level", "setting": "[3]", "value": "reducing TNF-α level"},
      {"measurement": "level of cytokines r-IFN, IL-4 and IL-10", "setting": "[4]", "value": "increased level"},
      {"measurement": "IL-13 level in serums", "setting": "[5]; SP peptide high-dosage preventive administration group, 250 μg/kg·d s.c. every other day x15 from day 1", "value": "significantly decreased"},
      {"measurement": "IL-13 level in lung tissue homogenates", "setting": "[5]; SP peptide high-dosage preventive administration group, 250 μg/kg·d s.c.", "value": "significantly decreased"},
      {"measurement": "IL-13 level in lung tissue homogenates", "setting": "[5]; SP peptide high-dosage treatment administration group, 250 μg/kg·d s.c.", "value": "significantly decreased"},
      {"measurement": "IL-13 level in lung tissue homogenates", "setting": "[5]; SP peptide low-dosage treatment administration group, 62.5 μg/kg·d s.c.", "value": "significantly decreased"},
      {"measurement": "IL-13 level in serums", "setting": "[5]; SP peptide medium-dosage preventive administration group, 125 μg/kg·d s.c. every other day x15 from day 1", "value": "significantly decreased"},
      {"measurement": "IL-13 level in lung tissue homogenates", "setting": "[5]; SP peptide medium-dosage preventive administration group, 125 μg/kg·d s.c.", "value": "significantly decreased"},
      {"measurement": "IL-13 level in lung tissue homogenates", "setting": "[5]; SP peptide medium-dosage treatment administration group, 125 μg/kg·d s.c.", "value": "significantly decreased"},
      {"measurement": "IL-13 level", "setting": "[5]; [8]", "value": "significantly reduced"},
      {"measurement": "overall score of lung tissue lesion level, difference compared to the model group (rank-sum test)", "setting": "[1]; SP peptide high-dosage preventive administration group, 250 μg/kg·d s.c., ** P<0.01, FIG. 3", "value": "highly significant differences"},
      {"measurement": "inflammatory cells infiltration (lung tissue section)", "setting": "[1]; [9]", "value": "infiltration with a few inflammatory cells around bronchus"},
      {"measurement": "pulmonary interstitial edema (lung tissue section)", "setting": "[1]; [9]", "value": "mild pulmonary interstitial edema"},
      {"measurement": "overall score of lung tissue lesion level, difference compared to the model group (rank-sum test)", "setting": "[1]; SP peptide high-dosage treatment administration group, 250 μg/kg·d s.c., ** P<0.01, FIG. 3", "value": "highly significant differences"},
      {"measurement": "inflammatory cells infiltration (lung tissue section)", "setting": "[1]; [10]", "value": "infiltration with a few inflammatory cells"},
      {"measurement": "pulmonary interstitial edema (lung tissue section)", "setting": "[1]; [10]", "value": "mild pulmonary interstitial edema"},
      {"measurement": "overall score of lung tissue lesion level, difference compared to the model group (rank-sum test)", "setting": "[1]; SP peptide low-dosage preventive administration group, 62.5 μg/kg·d s.c., * P<0.05, FIG. 3", "value": "significant differences"},
      {"measurement": "inflammatory cells infiltration (lung tissue section)", "setting": "[1]; [11]", "value": "infiltration with greater inflammatory cells"},
      {"measurement": "pulmonary interstitial edema (lung tissue section)", "setting": "[1]; [11]", "value": "moderate or severe pulmonary interstitial edema"},
      {"measurement": "overall score of lung tissue lesion level, difference compared to the model group (rank-sum test)", "setting": "[1]; SP peptide low-dosage treatment administration group, 62.5 μg/kg·d s.c., * P<0.05, FIG. 3", "value": "significant differences"},
      {"measurement": "inflammatory cells infiltration (lung tissue section)", "setting": "[1]; [12]", "value": "infiltration with greater inflammatory cells"},
      {"measurement": "pulmonary interstitial edema (lung tissue section)", "setting": "[1]; [12]", "value": "moderate intrapulmonary small perivascular and peribronchial pulmonary interstitial edema"},
      {"measurement": "overall score of lung tissue lesion level, difference compared to the model group (rank-sum test)", "setting": "[1]; SP peptide medium-dosage preventive administration group, 125 μg/kg·d s.c., * P<0.05, FIG. 3", "value": "significant differences"},
      {"measurement": "inflammatory cells infiltration (lung tissue section)", "setting": "[1]; [13]", "value": "infiltration with a few inflammatory cells"},
      {"measurement": "pulmonary interstitial edema (lung tissue section)", "setting": "[1]; [13]", "value": "moderate or mild pulmonary interstitial edema"},
      {"measurement": "overall score of lung tissue lesion level, difference compared to the model group (rank-sum test)", "setting": "[1]; SP peptide medium-dosage treatment administration group, 125 μg/kg·d s.c., ** P<0.01, FIG. 3", "value": "highly significant differences"},
      {"measurement": "alveolar wall congestion or emphysema (lung tissue section)", "setting": "[1]; [14]", "value": "congestion around alveolar walls, alveoli are in an emphysematous state"},
      {"measurement": "inflammatory cells infiltration (lung tissue section)", "setting": "[1]; [14]", "value": "infiltration with many inflammatory cells"},
      {"measurement": "pulmonary interstitial edema (lung tissue section)", "setting": "[1]; [14]", "value": "mild intrapulmonary small perivascular and peribronchial pulmonary interstitial edema"},
      {"measurement": "bronchia and perivascular interstitial edema, edematous inflammatory cells infiltration, alveolar wall congestion or emphysema", "setting": "[1]; after administering SP peptide for prevention or treatment, histopathologic test, FIG. 3", "value": "significantly reduced"},
      {"measurement": "lung tissue lesion level", "setting": "[1]; [8]", "value": "significantly alleviated"},
      {"measurement": "asthma modelling by pathological check on day 1 of week 15", "setting": "[1]; five mice drawn from each group, preventive administration groups (SP peptide 250, 125, 62.5 μg/kg·d s.c. from day 1, x15)", "value": "all asthma groups apart from the preventive administration groups are successfully modeled"},
      {"measurement": "IL-13 level in serums", "setting": "[6]; SP peptide high-dosage treatment administration group, 250 μg/kg·d s.c. every other day x15 from week 15", "value": "significantly decreased"},
      {"measurement": "IL-13 level in serums", "setting": "[6]; SP peptide low-dosage treatment administration group, 62.5 μg/kg·d s.c. every other day x15 from week 15", "value": "significantly decreased"},
      {"measurement": "IL-13 level in serums", "setting": "[6]; SP peptide medium-dosage treatment administration group, 125 μg/kg·d s.c. every other day x15 from week 15", "value": "significantly decreased"}
    ]}
  ]
}
